Activity calls are given as the source filed them. The rule behind the calls is not given here.
Experiments:
MM1.S [1] = experiment: Antitumor activity against 130 mm'3 human MM1S cells xenografted in mouse assessed as tumor growth inhibition at 150 mg/kg, sc qd administered for 5 days; assay type: functional, organism-based
NCI-H2122 = experiment: Cytotoxicity against human NCI-H2122 cells after 72 hrs by CellTiter96 AQueous one solution cell proliferation assay; assay type: functional, cell-based
BL-41 = experiment: Cytotoxicity against human BL41 cells after 72 hrs by CellTiter96 AQueous one solution cell proliferation assay; assay type: functional, cell-based
HCT-8 = experiment: Cytotoxicity against human HCT8 cells after 72 hrs by CellTiter96 AQueous one solution cell proliferation assay; assay type: functional, cell-based
MM1.S [2] = experiment: Antitumor activity against 1300 mm'3 human MM1S cells xenografted in mouse assessed as tumor growth inhibition at 150 mg/kg, sc qd administered for 5 days; assay type: functional, organism-based
NCI-H460 = experiment: Cytotoxicity against human NCI-H460 cells after 72 hrs by CellTiter96 AQueous one solution cell proliferation assay; assay type: functional, cell-based
HeLa = experiment: Cytotoxicity against human HeLa cells after 72 hrs by CellTiter96 AQueous one solution cell proliferation assay; assay type: functional, cell-based
COLO 320 = experiment: Cytotoxicity against human COLO320 cells after 72 hrs by CellTiter96 AQueous one solution cell proliferation assay; assay type: functional, cell-based
LoVo = experiment: Cytotoxicity against human LoVo cells after 72 hrs by CellTiter96 AQueous one solution cell proliferation assay; assay type: functional, cell-based
HS-Sultan = experiment: Cytotoxicity against human HS-Sultan cells after 72 hrs by CellTiter96 AQueous one solution cell proliferation assay; assay type: functional, cell-based
786-0 = experiment: Cytotoxicity against human 786-0 cells after 72 hrs by CellTiter96 AQueous one solution cell proliferation assay; assay type: functional, cell-based
RPMI18226 = experiment: Cytotoxicity against human […] cells after 72 hrs by CellTiter96 AQueous one solution cell proliferation assay; assay type: functional, cell-based
SW480 = experiment: Cytotoxicity against human SW480 cells after 72 hrs by CellTiter96 AQueous one solution cell proliferation assay; assay type: functional, cell-based
HPAC = experiment: Cytotoxicity against human HPAC cells after 72 hrs by CellTiter96 AQueous one solution cell proliferation assay; assay type: functional, cell-based
[3] = Antitumor activity against 350 mm'3 human HCT116 cells xenografted in mouse assessed as tumor growth inhibition at 150 mg/kg, sc qd administered for 5 days started on day 9 post 75 mg/kg dosing measured after day 24 relative to control; assay type: functional, HCT-116
HCC827 = experiment: Cytotoxicity against human HCC827 cells after 72 hrs by CellTiter96 AQueous one solution cell proliferation assay; assay type: functional, cell-based
HCC4006 = experiment: Cytotoxicity against human HCC4006 cells after 72 hrs by CellTiter96 AQueous one solution cell proliferation assay; assay type: functional, cell-based
Exportin-1 [4] = biological target: T1, Exportin-1 (Homo sapiens, UniProt O14980); experiment: Inhibition of Crm1 in human MM1R cells assessed as potentiation of bortezomib-induced antiproliferative activity by measuring cell survival at 30 to 300 nM after 72 hrs by MTT assay; assay type: cell-based
4T1 = experiment: Cytotoxicity against mouse 4T1 cells after 72 hrs by CellTiter96 AQueous one solution cell proliferation assay; assay type: functional, cell-based
PC-3 = experiment: Cytotoxicity against human PC3 cells after 72 hrs by CellTiter96 AQueous one solution cell proliferation assay; assay type: functional, cell-based
Exportin-1 [5] = biological target: T1, Exportin-1; experiment: Inhibition of Crm1 in human MM1S cells assessed as potentiation of bortezomib-induced antiproliferative activity by measuring cell survival at 30 to 300 nM after 72 hrs by MTT assay; assay type: cell-based
MCF7 = experiment: Cytotoxicity against human MCF7 cells after 72 hrs by CellTiter96 AQueous one solution cell proliferation assay; assay type: functional, cell-based
Caov-3 = experiment: Cytotoxicity against human Caov3 cells after 72 hrs by CellTiter96 AQueous one solution cell proliferation assay; assay type: functional, cell-based
NCI-H226 = experiment: Cytotoxicity against human NCI-H226 cells after 72 hrs by CellTiter96 AQueous one solution cell proliferation assay; assay type: functional, cell-based
LS180 = experiment: Cytotoxicity against human LS180 cells after 72 hrs by CellTiter96 AQueous one solution cell proliferation assay; assay type: functional, cell-based
NCI-H2030 = experiment: Cytotoxicity against human NCI-H2030 cells after 72 hrs by CellTiter96 AQueous one solution cell proliferation assay; assay type: functional, cell-based
Jurkat = experiment: Cytotoxicity against human Jurkat cells after 72 hrs by CellTiter96 AQueous one solution cell proliferation assay; assay type: functional, cell-based
[6] = Antitumor activity against 350 mm'3 human HCT116 cells xenografted in mouse assessed as tumor growth inhibition at 75 mg/kg, sc qd administered for 5 days measured after day 24 relative to control; assay type: functional; settings: HCT-116, sc, read-out: TGI
DU-145 = experiment: Cytotoxicity against human DU145 cells after 72 hrs by CellTiter96 AQueous one solution cell proliferation assay; assay type: functional, cell-based
MG-63 = experiment: Cytotoxicity against human MG63 cells after 72 hrs by CellTiter96 AQueous one solution cell proliferation assay; assay type: functional, cell-based
[7] = Toxicity in mouse xenografted with 350 mm'3 human HCT116 cells assessed as effect on clinical chemistry parameters at 150 mg/kg, sc qd administered for 5 days started on day 9 post 75 mg/kg dosing; assay type: organism-based, HCT-116; settings: in vivo, 120 h
Exportin-1 [8] = biological target: T1, Exportin-1; experiment: Inhibition of Crm1 in human Jurkat cells assessed as potentiation of bortezomib-induced antiproliferative activity by measuring cell survival at 30 to 300 nM after 72 hrs by MTT assay; assay type: cell-based
[9] = Toxicity in mouse xenografted with 350 mm'3 human HCT116 cells assessed as effect on complete blood count at 150 mg/kg, sc qd administered for 5 days started on day 9 post 75 mg/kg dosing; assay type: organism-based, HCT-116; settings: in vivo, 120 h
WiDr = experiment: Cytotoxicity against human WiDr cells after 72 hrs by CellTiter96 AQueous one solution cell proliferation assay; assay type: functional, cell-based
HCT-15 = experiment: Cytotoxicity against human HCT15 cells after 72 hrs by CellTiter96 AQueous one solution cell proliferation assay; assay type: functional, cell-based
MM1R = experiment: Cytotoxicity against human MM1R cells after 72 hrs by CellTiter96 AQueous one solution cell proliferation assay; assay type: functional, cell-based
Homo sapiens [10] = organism: Homo sapiens; experiment: Cytotoxicity against human H2935 cells after 72 hrs by CellTiter96 AQueous one solution cell proliferation assay; assay type: functional, cell-based
Homo sapiens [11] = organism: Homo sapiens; experiment: Cytotoxicity against human LS123 cells after 72 hrs by CellTiter96 AQueous one solution cell proliferation assay; assay type: functional, cell-based
NCI-H520 = experiment: Cytotoxicity against human NCI-H520 cells after 72 hrs by CellTiter96 AQueous one solution cell proliferation assay; assay type: functional, cell-based
Exportin-1 [12] = biological target: T1, Exportin-1; experiment: Inhibition of Crm1 in human U2OS cells expressing GFP-fused HIV1 Rev assessed as decrease in nuclear export of GFP-fused HIV1 Rev after 1 hr by Hoechst 33258 staining-based assay; assay type: cell-based
NCI-H1838 = experiment: Cytotoxicity against human NCI-H1838 cells after 72 hrs by CellTiter96 AQueous one solution cell proliferation assay; assay type: functional, cell-based
SW-620 = experiment: Cytotoxicity against human SW620 cells after 72 hrs by CellTiter96 AQueous one solution cell proliferation assay; assay type: functional, cell-based
DLD-1 = experiment: Cytotoxicity against human DLD1 cells after 72 hrs by CellTiter96 AQueous one solution cell proliferation assay; assay type: functional, cell-based
HCT-116 = experiment: Cytotoxicity against human HCT116 cells after 72 hrs by CellTiter96 AQueous one solution cell proliferation assay; assay type: functional, cell-based
Exportin-1 [13] = biological target: T1, Exportin-1; experiment: Inhibition of Crm1 in human HS-Sultan cells assessed as potentiation of bortezomib-induced antiproliferative activity by measuring cell survival at 30 to 300 nM after 72 hrs by MTT assay; assay type: cell-based

T1 sequence (O14980 whole entry): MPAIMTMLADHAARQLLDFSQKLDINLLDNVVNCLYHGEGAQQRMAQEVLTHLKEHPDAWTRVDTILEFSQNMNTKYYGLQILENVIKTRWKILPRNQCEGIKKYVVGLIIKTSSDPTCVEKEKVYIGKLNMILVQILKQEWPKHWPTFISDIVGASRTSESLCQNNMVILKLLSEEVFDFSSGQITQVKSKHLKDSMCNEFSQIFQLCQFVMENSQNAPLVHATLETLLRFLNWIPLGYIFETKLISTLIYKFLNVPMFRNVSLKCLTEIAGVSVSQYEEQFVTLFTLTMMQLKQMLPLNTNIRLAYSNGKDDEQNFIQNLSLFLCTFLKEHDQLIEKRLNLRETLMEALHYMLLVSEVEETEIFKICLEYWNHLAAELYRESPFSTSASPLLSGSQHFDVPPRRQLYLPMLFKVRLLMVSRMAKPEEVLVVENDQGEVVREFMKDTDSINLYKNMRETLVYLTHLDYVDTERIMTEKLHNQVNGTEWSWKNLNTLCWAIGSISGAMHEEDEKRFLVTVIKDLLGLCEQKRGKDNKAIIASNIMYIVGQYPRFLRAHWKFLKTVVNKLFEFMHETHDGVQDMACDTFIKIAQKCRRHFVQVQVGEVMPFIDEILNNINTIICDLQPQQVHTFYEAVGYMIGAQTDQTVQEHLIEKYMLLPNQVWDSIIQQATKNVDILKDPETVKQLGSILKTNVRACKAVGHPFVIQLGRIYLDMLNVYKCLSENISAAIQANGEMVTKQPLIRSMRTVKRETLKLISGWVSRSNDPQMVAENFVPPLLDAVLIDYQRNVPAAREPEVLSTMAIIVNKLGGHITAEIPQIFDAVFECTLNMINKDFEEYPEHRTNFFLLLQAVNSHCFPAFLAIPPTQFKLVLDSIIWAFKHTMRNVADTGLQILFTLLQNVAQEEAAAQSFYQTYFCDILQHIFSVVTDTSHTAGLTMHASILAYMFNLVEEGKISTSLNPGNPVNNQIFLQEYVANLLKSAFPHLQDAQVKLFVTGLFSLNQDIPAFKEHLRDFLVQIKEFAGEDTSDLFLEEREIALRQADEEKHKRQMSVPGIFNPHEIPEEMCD

IC50 (Exportin-1 [12]): ≤ 1000 nM
Compound: CC(C)OC(=O)/C=C\n1cnc(-c2ccc(Cl)cc2)n1
TGI (MM1.S [1]): Active
Activity (NCI-H2122): Active
Activity (BL-41): Active
Activity (HCT-8): Active
TGI (MM1.S [2]): Active
Activity (NCI-H460): Active
Activity (HeLa): Active
Activity (COLO 320): Active
Activity (LoVo): Active
Activity (HS-Sultan): Active
Activity (786-0): Active
Activity (RPMI18226): Active
Activity (SW480): Active
Activity (HPAC): Active
TGI [3]: 60%
Activity (HCC827): Active
Activity (HCC4006): Active
inhibition (Exportin-1 [4]): Active
Activity (4T1): Active
Activity (PC-3): Active
inhibition (Exportin-1 [5]): Active
Activity (MCF7): Active
Activity (Caov-3): Active
Activity (NCI-H226): Active
Activity (LS180): Active
Activity (NCI-H2030): Active
Activity (Jurkat): Active
inhibition in vivo at 75 mg/kg [6]: 31%
Activity (DU-145): Active
Activity (MG-63): Active
Activity [7]: Non-Toxic
inhibition (Exportin-1 [8]): Active
Activity [9]: Non-Toxic
Activity (WiDr): Active
Activity (HCT-15): Active
Activity (MM1R): Active
Activity (Homo sapiens [10]): Active
Activity (Homo sapiens [11]): Active
Activity (NCI-H520): Active
Activity (NCI-H1838): Active
Activity (SW-620): Active
Activity (DLD-1): Active
Activity (HCT-116): Active
inhibition (Exportin-1 [13]): Active

Reference: ChEMBL document CHEMBL3879893, “Nuclear transport modulators and uses thereof” (2011)
